Where a name gives a salt, the structure may show the parent alone.
What was measured:
[1] = Stability testing of duloxetine-containing medicinal products (HPLC, mass spectrometry); assay type: physicochemical; conditions: during manufacture of the salt and during shelf-life of the medicinal products prepared from it
Description: During the process of stability testing, the identity and concentration of individual impurities present in the medicinal product are determined as the function of time and storage conditions. In the aforementioned tests, generally high-performance liquid chromatography and mass spectrometry are used as analytical methods.
In order to identify the above mentioned impurities, each of them has been separated by high-performance liquid chromatography and their molecular weight was determined by mass spectrometry.
Subsequently, the compound of the Formula (II) has been prepared by the rearrangement of duloxetine hydrobromide in pure form and in good yield and the thus obtained product was subjected to structure elucidation. The identity of the thus obtained (±)-N-methyl-3-(2-thienyl)-3-(4-hydroxy-1-naphtyl)-propylamine of the Formula (II) with the impurity observed during the stability testing has been established using high-performance liquid chromatography and mass spectrometry.
The following sample preparation method has been used during the stability testing of duloxetine-containing medicinals products and assay of duloxetine active ingredients.
(§1) A sample containing approximately 100 mg of duloxetine is thoroughly homogenized in a mortar, weighed with analytical precision and transferred into a suitable volumetric flask. 80 ml of 80:20 volume by volume mixture of water and acetonitrile are added to the sample and the suspension is shaked in an ultrasonic bath for 10 minutes at the temperature of 25° C. The suspension is filtered and completed to 100 ml with the extraction solvent. A 10-μl portion of the thus obtained solution is analyzed by the high-performance liquid chromatographic method of Example 9.

[2] = HPLC assay of the impurity of the Formula (II) in the duloxetine salt obtained; assay type: physicochemical; conditions: rearrangement product of duloxetine, salt as obtained, limit of detection 0.01 percent by weight
Description: The limit of detection for the compound of the Formula (II) is a feature of the high-performance liquid chromatographic method used for the assay thereof. Using the chromatographic method disclosed in the present application, said limit of detection is 0.01 percent by weight.
The analysis is carried out using ultraviolet absorption detector under the following chromatographic conditions:
Column, Chiral OD-R, 250*4,6 mm, 10 μm particle size • Flow rate, 1.0 ml/minute • Injection volume, 10 μl • Column temperature, 40° C. • Temperature of sample compartment, 20° C. • Detection wavelength, 220 nm • Mobile phase A: solution of 40 g of sodium hydroxide and 85 ml of concentrated perchloric acid are dissolved in 200 ml of distilled water, pH 2.1 • B: acetonitrile • Eluent composition, isocratic, 55 percent by volume mobile phase A • Analysis time, 30 minutes • Sample concentration, 10 mg/10 ml • Sample solvent, water-acetonitrile 80:20 volume/volume • Needle wash, water-acetonitrile […] volume/volume • Selectivity factor, >4 • Number of theoretical plates, min. 10000 • Asymmetry factor, <2
The assay is carried out according to the requirements of the pharmacopoeia regarding the determination of the impurities.
as §1, with “solvent.” for “solvent. A 10-μl portion of the thus obtained solution is analyzed by the high-performance liquid chromatographic method of Example 9.”

[3] = preparation of salts with strong mineral acids, especially hydrobromic acid; 25 to 50° C.

## (+)-N-methyl-3-(1-naphtyloxy)-3-(2-thienyl)-propylamine fumarate (1:1) [Example 2]
[1]
  formation of (±)-N-methyl-3-(2-thienyl)-3-(4-hydroxy-1-naphtyl)-propylamine of the Formula (II): can be detected neither during the manufacture of the above-mentioned particularly preferable salts, nor during the shelf-life
[2]
  amount of the impurity of the Formula (II) in the product: less than 0.01 percent by weight

## CNCC[C@H](Oc1cccc2ccccc12)c1cccs1 [duloxetine, (+)-(S)—N-methyl-3-(1-naphtyloxy)-3-(2-thienyl)-propylamine]
[3]
  time in which the compound of the Formula (II) forms: a few minutes

## (+)-N-methyl-3-(1-naphtyloxy)-3-(2-thienyl)-propylamine citrate (1:1) [Example 1]
[1]
  formation of (±)-N-methyl-3-(2-thienyl)-3-(4-hydroxy-1-naphtyl)-propylamine of the Formula (II): can be detected neither during the manufacture of the above-mentioned particularly preferable salts, nor during the shelf-life
[2]
  amount of the impurity of the Formula (II) in the product: less than 0.01 percent by weight

## CNCCC(Oc1cccc2ccccc12)c1cccs1.O=C(O)C(O)c1ccccc1 (stereo not drawn) [Example 3, (+)-N-methyl-3-(1-naphtyloxy)-3-(2-thienyl)-propylamine(−)-mandelate (1:1)]
[1]
  formation of (±)-N-methyl-3-(2-thienyl)-3-(4-hydroxy-1-naphtyl)-propylamine of the Formula (II): can be detected neither during the manufacture of the above-mentioned particularly preferable salts, nor during the shelf-life
[2]
  amount of the impurity of the Formula (II) in the product: less than 0.01 percent by weight

## CNCCC(c1cccs1)c1ccc(O)c2ccccc12 (racemic)
other
  melting point: 190 to 196 °C

## CNCC[C@H](Oc1cccc2ccccc12)c1cccs1 [Example 6, (+)-N-methyl-3-(1-naphtyloxy)-3-(2-thienyl)-propylamine hydrochloride (1:1), reference compound]
[2]
  amount of the impurity of the Formula (II) in the product: approximately 0.05 percent by weight

— patent publication US20090209617A1, “DULOXETINE SALTS” (priority 2006, published 2009)
